Assay results: US4734406A, “3-pyridylmethylnaphthyl derivatives and composition containing them useful to inhibit thromboxane synthetase” (priority 1985, dated 1988)
Counter-ions that a name gives are not always drawn.

Assays:
human platelets = assay: Inhibition of the arachidonic acid-induced aggregation of human platelets in vitro; assay type: cell-based; conditions: Platelet, PRP, 10 min preincubation at 37° C., 2×10^-4 M arachidonic acid
Description: 1. Inhibition of the arachidonic acid-induced aggregation of human platelets in vitro.
The platelet aggregation is followed optically by measurement of the transmission of light in a Born aggregometer. The total volume of the test mix is 0.25 ml. The preincubation time at 37° C. with the test product is 10 min, and aggregation is then induced with 2×10^-4 M arachidonic acid. The test product is, as a rule, tested in five different concentrations in the PRP from three different donors. Dose-effect curves are drawn from the maximal aggregation amplitudes in each case, and the IC50 values are determined graphically. […] The measurements are carried out in the period 1-6 hours after blood sampling.

[1] = test system: TXA2 release in platelet-rich human plasma; assay: Thrombin-induced TXA2 release in platelet-rich human plasma in vitro (TXB2 radioimmunoassay); assay type: cell-based; conditions: 0.5 h, relative TXB2 content, without test substance = 100%, 0.5 U thrombin + 7.2×10^-7 M arachidonic acid; for activity at 1 µM: 10^-6 mol/l test substance; for activity at 0.1 µM: 10^-7 mol/l test substance
Description: 2. Thrombin-induced TXA2 release in platelet-rich human plasma in vitro Blood is taken, by careful cannulation of the antecubital vein, from apparently healthy male and female volunteers, who have taken no medicaments in the preceding 10-day period, and is immediately stabilized with sodium citrate (ad. 0.38%). Platelet-rich plasma (PRP) is obtained in the supernatant by centrifugation at 140×g for 15 minutes, and the platelet content of this should be in the range 2.5-3.5×10^8 /ml. […] This is stopped in an ice bath and, after addition of tracer and TXB2 -specific antibodies (NEN, Dreieich), the TXB2 content is determined radioimmunologically (TXA2 is unstable under the experimental conditions and thus cannot be measured. The stable hydrolysis product TXB2 is measured in its place). The measured variable is the relative TXB2 content in the platelet incubations from two or three different donors with and without (=100%) the test substance.

Laser-induced thrombosis = assay: Inhibition of Laser-induced thrombosis; assay type: in vivo, Sprague-Dawley rats; conditions: 10 mg/kg p.o., one hour before start; mesentery arterioles, rat
Description: 3. Inhibition of Laser-induced thrombosis
The investigations of the compounds according to the invention in the model of Laser-induced thrombosis are carried out on male or female Sprague-Dawley rats with a body weight of about 200 g. The animals to be investigated are premedicated s.c. with 0.1 mg of atropine sulfate in solution, and anesthetized i.p. with 100 mg of ketamine hydrochloride and 4 mg of xylazine per kg of body weight. Arterioles from the mesentry, with a diameter of 12-25 μm, are used for the investigation. During the measurement, the exposed mesentry is hyperfused with warmed physiological NaCl (37° C.) or is covered with degassed liquid paraffin. The beam of a 4 W argon laser (supplied by Spectra Physics, Darmstadt, FRG) is introduced coaxially into the inverted ray path of a microscope (ICM 405, LD-Epilan 40/0.60; supplied by Zeiss, Oberkochen, FRG) by means of a ray adaptation and adjustment system (supplied by BIG, Munich, FRG). […]
The number of shots needed to induce a defined thrombus was counted. The frequency of the laser flashes was one lesion every 2 minutes, all the thrombi with a minimum size of 1/4 of the vessel radius which were formed during the observation period being counted and measured. The results of the experiment were statistically analyzed using the x^2 test (L. Cavalli-Sforza, Biometrie, Stuttgart, 1969, pages 49 et seq.).

SMILES | IC50 (human platelets) [µM] | activity at 1 µM [1] [%] | activity at 0.1 µM [1] [%] | Number of laser shots to form a thrombus (compared with control) (Laser-induced thrombosis)
Cc1ccncc1C(O)c1ccc2cc(C(=O)O)ccc2c1.Cl (stereo not shown) [Example 8, 6-[1-Hydroxy-1-(4-methyl-3-pyridyl)methyl]-2-naphthoic acid hydrochloride] | 6.3 | 13 | 88 | +56%
O=C(O)c1ccc2cc(C(O)c3cccnc3)ccc2c1 (stereo not shown) [Example 9, hydrochloride of 6-[1-hydroxy-1-(3-pyridyl)methyl]-2-naphthoic acid] | 1.7 | 21 | 64 | 
